{"source": "patent US10758500B2", "about": "“Treating androgen deprivation therapy induced hot flashes and bone loss in men using cis-clomiphene” (ASPEN PARK PHARMACEUTICALS, INC., priority 2014, dated 2020)", "test_system": "Men who have advance prostate cancer on ADT", "assay": "Effect of cis-clomiphene on bone turnover markers and BMD (Example 2)", "assay_type": "in vivo, human", "conditions": "50 mg/d for 6 months, Day 180 compared with baseline", "procedure": "Men who have advance prostate cancer on ADT are treated with 50 mg/d of substantially cis-clomiphene for 6 months. At Day 180, baseline bone turnover markers like serum bone specific alkaline phosphatase and are compared to current values as well as BMD by DEXA.\nBone analysis methodology may be carried out as described in U.S. Patent Publication No. 2004/0214898, the pertinent contents of which are incorporated herein by reference."}
{"smiles": "CCN(CC)CCOc1ccc(/C(=C(/Cl)c2ccccc2)c2ccccc2)cc1", "note": "[cis-clomiphene]", "values": [{"measurement": "effects on bone: bone turnover markers (serum bone specific alkaline phosphatase) and BMD by DEXA", "value": "estrogenic effects on bone favorably affecting bone turnover markers and BMD"}]}
